From patent US12329850B2, “Microalgae having high loliolide productivity” (KOREA RESEARCH INSTITUTE OF BIOSCIENCE AND BIOTECHNOLOGY, priority 2019, dated 2025)

Experiments:
Format in all cases: cell-based
[1] = test system: human dermal fibroblasts (HDFs); test: WST-1 assay, cytotoxicity of loliolide on human dermal fibroblasts; settings: loliolide up to 20 μg/mL, 24 hours
Description: The purification of loliolide was performed in the same manner as in Example 3, and an extract was obtained using ethyl acetate from a lyophilized culture of the Scenedesmus sp. HS4 microalgae of the present invention, and loliolide was purified through fractionation/concentration. In the case of culturing human dermal cells, human dermal fibroblasts purchased from Lonza (Basel, Switzerland) were cultured in a 5% CO2 cell incubator at 37° C. using a medium in which 10% fetal bovine serum (FBS, 51480, Biowest, France) was further added to Dulbecco's modified Eagle's medium (DMEM medium, L0103-500, Biowest, France).
First, whether loliolide has cytotoxicity against human dermal fibroblasts was confirmed through WST-1 assay. After dispensing the cultured human dermal fibroblasts into a 96-well plate at 4×10^3 cells/well and culturing for 24 hours, the loliolide purified from Scenedesmus sp. HS4 microalgae was treated at concentrations of 0 μg/mL, 2 μg/mL, 5 μg/mL, 10 μg/mL, and 20 μg/mL, respectively. After 24 hours have elapsed after the loliolide treatment, the solution was treated in the medium using a WST-1 assay kit (EZ-cytox cell viability kit, Itshio, Korea), the absorbance was measured at a wavelength of 450 nm with a microplate reader (iMark microplate reader, Bio-Rad, USA).

[2] = test system: human dermal fibroblasts irradiated with UVB; test: WST-1 assay, cell viability recovery in UVB-irradiated human dermal fibroblasts; settings: loliolide 2 μg/mL for 6 hours, then UVB 10 mJ/cm^2, 24 hours
Description: Human dermal fibroblasts cultured in the same manner as in Example 6 were dispensed in a 96-well plate by 4×10^3 cells/well, and loliolide was treated at concentrations of 2 μg/mL, 5 μg/mL, 10 μg/mL, and 20 μg/mL for 6 hours. Then, the medium was irradiated with UVB at 10 mJ/cm^2 and cultured further for 24 hours, and cell viability was measured by performing a WST-1 assay in the same manner as in Example 6.

ColA1 gene = test: qRT-PCR, expression of collagen gene in UVB-irradiated human dermal fibroblasts; settings: 24 hours, UVB-only control 30%
Description: (§1) First, human dermal fibroblasts cultured in the same manner as in Example 6 were dispensed in a 96-well plate in an amount of 4×10^3 cells/well, and UVB was irradiated to the medium at 10 mJ/cm^2. […] Thereafter, the changes in expression levels of the ColA1 gene and the MMP1 gene were measured through quantitative real time-PCR (qRT-PCR). During this process, SYBR green I (Invitrogen), which is a fluorescent material, was used to examine the amount of the DNA product amplified by PCR in real time. Specifically, 0.2 μM of the primers prepared with the sequences shown in Table 3 below were added to a PCR tube, and mixed with 50 mM KCl, 20 mM Tris/HCl (pH 8.4), 0.8 mM dNTP, 0.5 U DNA polymerase (Extaq DNA polymerase), 3 mM MgCl2 and 1×SYBR Green I so as to prepare a reaction solution. Then, PCR was performed using a PCR device (Linegene K, BioER, China)(PCR conditions: primary denaturation for 3 minutes, denaturation at 94° C. for 30 seconds, annealing at 58° C. for 30 seconds, and polymerization at 72° C. for 30 seconds, a total of 40 cycles), and the fluorescence intensity was measured for each cycle.

MMP1 gene = test: qRT-PCR, expression of collagenase gene in UVB-irradiated human dermal fibroblasts; settings: 24 hours, UVB-only control 2.4-fold increase
Description: as §1

[3] = UVB 10 mJ/cm^2, then loliolide 5 μg/mL
[4] = UVB 10 mJ/cm^2, then loliolide 10 μg/mL

CC1(C)C[C@H](O)C[C@@]2(C)OC(=O)C=C12 [loliolide]
toxicity to human dermal fibroblasts (relative viability vs untreated control) [1]: not toxic | cell viability compared to the UVB control group [2]: significantly increased | expression level of ColA1 gene, based on cells without any treatment (ColA1 gene; [3]): 55% | expression level of ColA1 gene, based on cells without any treatment (ColA1 gene; [4]): 65% | expression level of MMP1 gene (MMP1 gene; [3]): 25% | expression level of MMP1 gene (MMP1 gene; [4]): 46%
